Measurements from PubChem BioAssay AID1996.
In brackets after ≈: the same amount, converted by molar mass.

conditions: buffer; pH 7.4; 200.0 µM

Compound	solubility kinetic
CS(=O)(=O)c1ccccc1C(=O)Nc1ccc2sccc2c1	33.8 µg/mL (≈ 102 µM)
CCOC(=O)N1CCN(C(=O)c2cc3cc(C)ccc3[nH]2)CC1	41.6 µg/mL (≈ 132 µM)
COC(=O)c1sccc1NC(=S)Nc1ccc(F)cc1F	42 µg/mL (≈ 128 µM)
O=C(NC(=S)Nc1cccc2ncccc12)c1ccco1	13.3 µg/mL (≈ 44.7 µM)
NS(=O)(=O)c1cc(C(=O)OC2CCOC2=O)ccc1Cl (configuration not stated)	> 48 µg/mL
COc1ccccc1N1CCN(c2ccc([N+](=O)[O-])cn2)CC1	16.2 µg/mL (≈ 51.5 µM)
Clc1ccc(-c2ncc3ccccn23)c(Cl)c1	22.5 µg/mL (≈ 85.5 µM)
CCOc1ccc(NC(=O)NCc2ccccn2)cc1	35.6 µg/mL (≈ 131 µM)
COC(=O)c1sc(S(=O)(=O)N2CCN(c3ccccc3F)CC2)c(C(=O)OC)c1C	2.1 µg/mL (≈ 4.6 µM)
COc1ccc(/C=C2\SC(N3CCCCC3)=NC2=O)cc1	1.3 µg/mL (≈ 4.3 µM)
CCN(CC(=O)NCc1cccs1)C(=O)c1cc(Br)ccc1O	> 59.6 µg/mL
CC1CCN(CC(O)COC2CC(C)CC(C)(C)C2)CC1.Cl (configuration not stated)	45.5 µg/mL
C[C@]12C=CC(=O)C=C1CC[C@@H]1C2=CC[C@]2(C)[C@@H](C(=O)CN3CCN(c4cc(N5CCCC5)nc(N5CCCC5)n4)CC3)CC[C@@H]12.O=C(O)/C=C\C(=O)O	48.2 µg/mL
COc1cccc(C(=O)NCc2ccco2)c1	> 34.7 µg/mL
Cc1ccc(NC(=O)c2cnccn2)c(Br)c1	4.2 µg/mL (≈ 14.4 µM)
CN1CC(=O)N(CC(=O)Nc2ccc3c(c2)CCC3)C1=O	> 43.1 µg/mL
NS(=O)(=O)c1ccc(NC(=O)c2cccc(Cl)c2)cc1	10 µg/mL (≈ 32.2 µM)
CC1(C)CC(=O)C(C=NCCN2CCN(C(=O)CCl)CC2)=C(O)C1	> 53.4 µg/mL
N=c1oc2cc(O)ccc2cc1C(=O)Nc1ccc(F)cc1	1.5 µg/mL (≈ 5.03 µM)
Cc1ccc(NC(=O)NC2CCCCCCC2)cc1C	< 0.3 µg/mL
CCN(C(=O)CSc1nc2ccccc2c(=O)n1-c1ccccc1F)C1CCS(=O)(=O)C1 (configuration not stated)	9.5 µg/mL (≈ 20 µM)
Nc1nc(NCc2ccco2)nc(NC2CCCCC2)c1[N+](=O)[O-]	0.3 µg/mL (≈ 0.903 µM)
CN(NC1OC(=O)c2ccccc21)c1ccccc1[N+](=O)[O-] (configuration not stated)	> 44.9 µg/mL
O=S(=O)(NCc1ccccn1)c1ccc2ccccc2c1	36.9 µg/mL (≈ 124 µM)

Compound	solubility kinetic
CCn1c(SCC#N)nc2cc(S(=O)(=O)N3CCOCC3)ccc21	> 55 µg/mL
CC(=O)CSc1nc(-c2ccccc2)c(-c2ccccc2)o1	3.1 µg/mL (≈ 10 µM)
O=S(=O)(c1cccs1)N1CCN(c2ccc(Cl)cc2)CC1	< 0.4 µg/mL
NS(=O)(=O)c1ccc(NC(=O)Nc2ccccc2)cc1	42.8 µg/mL (≈ 147 µM)
CC(C)C(=O)Nc1ccc(NC(=O)CCc2ccccc2)cn1	> 46.7 µg/mL
Cc1cc(Nc2ccc([N+](=O)[O-])cc2)c2ccccc2n1	0.6 µg/mL (≈ 2.15 µM)
Cc1ccc(Nc2nnc(SC(C)C(=O)NCC3CCCO3)s2)cc1 (configuration not stated)	> 56.8 µg/mL
CC1(C)C(C(=O)N2CCN(C(=O)c3ccccc3)CC2)C1(C)C	> 47.2 µg/mL
Cc1cc(NS(=O)(=O)c2ccc(NC(=O)COc3ccc(C#N)cc3)cc2)nc(C)n1	> 65.6 µg/mL
CCNc1nc(OC)nc(N(OC)S(=O)(=O)c2ccc(C)cc2)n1	> 53 µg/mL
COc1ccc(OC)c(CCNC(=O)CCc2cn(C)c3ccccc23)c1	30.6 µg/mL (≈ 83.5 µM)
CCC(C(=O)O)N1C(=O)C2CCCCC2C1=O (configuration not stated)	> 35.9 µg/mL
COC(=O)c1c(C)[nH]c(C(=O)C(C)OC(=O)c2cnc(C)cn2)c1C (configuration not stated)	49.2 µg/mL (≈ 142 µM)
CC1(C)CC(=O)C=C(NCCc2ccccc2)C1	35.1 µg/mL (≈ 144 µM)
Cc1ccc(C(O)(CNCc2ccccc2)c2ccccc2)cc1 (configuration not stated)	26.2 µg/mL (≈ 82.5 µM)
Cc1ccc2c(c1)sc(=NC(=O)c1cccs1)n2C	< 0.3 µg/mL
Cc1ccc(-c2cc(C(=O)N3CC4(C)CC3CC(C)(C)C4)no2)cc1 (configuration not stated)	< 0.4 µg/mL
CCCn1c2ccccc2c2cnn(CC(=O)NCCN(C)C)c(=O)c21	> 53.3 µg/mL
Cc1ccc(C(=O)OCC(=O)NC2CCS(=O)(=O)C2)c(C)c1 (configuration not stated)	> 48.8 µg/mL
O=C(CN1C(=O)C(=O)N(Cc2ccco2)C1=O)Nc1ccccc1	> 49.1 µg/mL
N#Cc1ccc(-c2nc3ccccc3c(=O)n2O)cc1	> 39.5 µg/mL
CCN(Cc1cc(=O)oc2cc(C)ccc12)c1ccccc1	2 µg/mL (≈ 6.82 µM)
O=[N+]([O-])c1cccc(-c2cnc3ccccc3n2)c1	< 0.2 µg/mL
O=C(NCC1CCCO1)c1cccc(NC(=O)c2ccccc2)c1 (configuration not stated)	> 48.7 µg/mL

Compound	solubility kinetic
Cc1cccc(Nc2ccc3nonc3c2[N+](=O)[O-])c1C	< 0.2 µg/mL
Cc1ccc2nc(-c3ccccc3)oc(=O)c2c1	0.9 µg/mL (≈ 3.79 µM)
COc1cccc(N2CCN(CC(=O)NC(C)c3ccccc3)CC2)c1 (configuration not stated)	45 µg/mL (≈ 127 µM)
CC1CCCCC1NC(=O)COC(=O)c1ccc([N+](=O)[O-])o1 (configuration not stated)	> 46.5 µg/mL
CC(C)C(=O)Nc1ccccc1-c1nc2ccccc2[nH]c1=O	> 46.1 µg/mL
COc1cc(SC)ccc1C(=O)NCCc1c[nH]c2ccccc12	6.1 µg/mL (≈ 17.9 µM)
CCOC(=O)C1=C(C)N(CC(C)C)C(=O)C1	> 33.8 µg/mL
O=C(Nc1cccc(S(=O)(=O)N2CCCC2)c1)c1ccco1	> 48.1 µg/mL
Cc1cc(C(=O)COC(=O)CC(NC(N)=O)c2ccc(Cl)cc2)c(C)n1C (configuration not stated)	29.2 µg/mL (≈ 74.5 µM)
O=C(COC(=O)c1ccc(Br)o1)NCc1ccc(Cl)cc1	7.2 µg/mL (≈ 19.3 µM)
O=C(NCC1CCCCC1)c1cccnc1Cl	31.7 µg/mL (≈ 125 µM)
COc1ccc(Cl)cc1C(=O)Nc1ccc(NC(=O)C(C)C)cc1	0.5 µg/mL (≈ 1.44 µM)
COc1ccccc1NC(=O)COC(=O)/C=C/c1ccc(OC)c(OC)c1	4.1 µg/mL (≈ 11 µM)
CC(=O)c1ccc(Nc2nc(-c3cccnc3)cs2)cc1	0.9 µg/mL (≈ 3.05 µM)
CCCCC(=O)Nc1ccc(NC(=O)c2cnccn2)cn1	> 44.9 µg/mL
COc1ccc(C(=O)N=c2sc3ccccc3n2C)cc1OC	< 0.4 µg/mL
Cc1cccc(CCNCc2cc3ccc(C)cc3[nH]c2=O)c1	45.4 µg/mL (≈ 148 µM)
CCOC(=O)C(=O)N1CCN(c2ccccc2OC)CC1	> 43.9 µg/mL
Cc1ccc(-n2c(O)c(C=NCCCn3ccnc3)c(=O)[nH]c2=O)cc1	> 53 µg/mL
CN(C(=S)Nc1ccc(SC(F)F)cc1)c1ccc(O)cc1	> 51.1 µg/mL
O=C(NC(=S)Nc1cccc2ncccc12)c1cccs1	1.7 µg/mL (≈ 5.42 µM)
Cc1ccc(SCC(=O)N=C2NC(=O)CS2)cc1	35.9 µg/mL (≈ 128 µM)
COc1ccc(CCNC(=O)COC(=O)c2cc(S(=O)(=O)N3CCOCC3)ccc2C)cc1OC	> 76 µg/mL
COc1ccccc1C(=O)C1CCCN(C(=O)C2CCCC2)C1 (configuration not stated)	> 47.3 µg/mL

Compound	solubility kinetic
Cc1nc2ccc(Br)cc2c2c1CC(CBr)O2 (configuration not stated)	2.2 µg/mL (≈ 6.16 µM)
O=C(NCc1ccc(F)cc1F)c1cc(COc2c(F)cccc2F)on1	1.5 µg/mL (≈ 3.94 µM)
Cc1ccccc1C(=O)NCC(=O)Nc1ccccc1C(F)(F)F	> 50.4 µg/mL
O=C(Nc1ccc(N2CCCC2)cc1)c1ccc(Cl)cc1Cl	0.5 µg/mL (≈ 1.49 µM)
COc1ccc2c(C)cc(SCC(=O)NC3CCCCC3)nc2c1	1.3 µg/mL (≈ 3.77 µM)
Clc1ccc(-c2csc(Nc3cccnc3)n2)cc1	0.3 µg/mL (≈ 1.04 µM)
Cc1cc(C)n(CC(=O)NCCC2=CCCCC2)n1	> 39.2 µg/mL
O=C(NC(=S)Nc1ccc(Br)c(Cl)c1)C1CC1	< 0.4 µg/mL
COc1ccc(C(=O)Nc2cc(S(=O)(=O)N3CCCC3)ccc2Cl)cc1	9.2 µg/mL (≈ 23.3 µM)
CCC(CC)C(=O)c1c[nH]c(C(=O)NCCOC)c1	> 40 µg/mL
Cc1c(O)nc2ccccn2c1=O	> 26.4 µg/mL
Nc1ccc(N2CCN(c3ccccc3)CC2)c(F)c1	> 40.7 µg/mL
O=C(Nc1ncccc1Cl)c1cc2ccccc2o1	11.4 µg/mL (≈ 41.8 µM)
CN(Cc1ccccn1)Cc1nc(-c2ccc(Cl)cc2)no1	35.5 µg/mL (≈ 113 µM)
Cc1ccc(NC(=O)c2cnccn2)nc1	> 32.1 µg/mL
O=C1C=C(NCCOC23CC4CC(CC(C4)C2)C3)C2(CCCCC2)O1	4 µg/mL (≈ 11.6 µM)
CN(c1ccccc1)S(=O)(=O)c1cccc(C(=O)OCC(=O)Nc2ccc(C(N)=O)cc2)c1	9.9 µg/mL (≈ 21.2 µM)
CC1CCN(c2nc(N(C)c3ccccc3)nc(N)c2[N+](=O)[O-])CC1	4.6 µg/mL (≈ 13.4 µM)
Cc1cccc(C(=O)OC(C)CN2CCN(C)CC2)c1.Cl (configuration not stated)	> 46.9 µg/mL
CO/N=C(\C)C(Cc1ccc(Cl)nc1)Cc1ccc(Cl)nc1	> 50.7 µg/mL
Cc1ccc(NC(=O)C(C)OC(=O)CCC2CCCCC2)cc1 (configuration not stated)	4.1 µg/mL (≈ 12.9 µM)
CCS(=O)(=O)N1CCCC(C(=O)c2ccc(OC)cc2C)C1 (configuration not stated)	42 µg/mL (≈ 129 µM)
CC1CCN(C(=S)c2cccc(O)c2)CC1	32.8 µg/mL (≈ 139 µM)
N#C/C(=C\Nc1ccc(F)c(Cl)c1)S(=O)(=O)c1ccccn1	42 µg/mL (≈ 124 µM)

Compound	solubility kinetic
Cc1nnc(SCC(=O)N(C)c2ccccc2)n1-n1cccc1	> 49.1 µg/mL
COc1ccc(N=c2ssnc2Cl)cc1	0.4 µg/mL (≈ 1.55 µM)
O=C(C[n+]1ccccc1)N1CCCc2ccccc21.[Cl-]	> 43.3 µg/mL
O=C(NCc1cccnc1)Nc1ccc([N+](=O)[O-])cc1	> 40.8 µg/mL
CCOC(=O)C1CCCN(C(=O)COc2ccc(S(=O)(=O)N3CCOCC3)cc2)C1 (configuration not stated)	> 66.1 µg/mL
Cc1noc(C)c1-c1nc(CSc2ccc(Cl)cc2)no1	< 0.2 µg/mL
Cc1cc(-c2ccccc2C(=O)Nc2ccccc2O)on1	> 44.1 µg/mL
Cc1ccc2[nH]c(C(=O)N3CCN(C(c4ccccc4)c4ccccc4)CC3)cc2c1	1 µg/mL (≈ 2.44 µM)
Cc1cnc(C(=O)OCC(=O)Nc2cc(S(=O)(=O)N3CCOCC3)ccc2Cl)cn1	> 68.2 µg/mL
O=C(NC(=S)Nc1ccccc1Cl)c1cncc(Br)c1	1.2 µg/mL (≈ 3.24 µM)
O=C(COc1ccc(-c2nnco2)cc1)N1CCOCC1	> 43.4 µg/mL
Cn1ncc(Br)c1NC(=O)c1ccco1	> 40.5 µg/mL
C#Cc1ccc(CN2CCN(Cc3ccsc3)C(CCO)C2)cc1 (configuration not stated)	36.3 µg/mL (≈ 107 µM)
CCC(=NCc1ccco1)c1c(O)n(C)c(=O)n(C)c1=O	> 43.7 µg/mL
O=C(NC1(O)C(=O)c2ccccc2C1=O)c1ccc(C(F)(F)F)cc1	> 52.4 µg/mL
Clc1cc(Cl)cc(Nc2ncnc(-n3cccc3)n2)c1	< 0.1 µg/mL
COCCNc1oc(/C=C/c2ccccc2)nc1C#N	> 40.4 µg/mL
Cc1ccc(-c2nc(=O)[nH]c3ccccc23)cc1	25.8 µg/mL (≈ 109 µM)
O=C(c1cc2ccccc2s1)N1CCN(c2ccccn2)CC1	8.9 µg/mL (≈ 27.5 µM)
Nc1nc(Cl)cc(-c2ccccc2)n1	29.3 µg/mL (≈ 142 µM)
C/C=C/C(=O)Nc1ccc(N2CCN(c3ccc(C(F)(F)F)cn3)CC2)nc1	< 0.2 µg/mL
